The record followed here is article PMC5752149 (European journal of medicinal chemistry, 2017).

In assay [1] the target is T1, EphA2 receptor (Homo sapiens, UniProt P29317). Nature of the assay: EphA2 phosphorylation and internalization in MDA-MB-231 cells. Type of assay: cell-based.
For assay [2], the target named is T1, EphA2 receptor. Nature of the assay: EphA2 phosphorylation in EphA2-overexpressing MDA-MB-231 cells. The class given is cell-based.

T1 sequence (P29317 24-976): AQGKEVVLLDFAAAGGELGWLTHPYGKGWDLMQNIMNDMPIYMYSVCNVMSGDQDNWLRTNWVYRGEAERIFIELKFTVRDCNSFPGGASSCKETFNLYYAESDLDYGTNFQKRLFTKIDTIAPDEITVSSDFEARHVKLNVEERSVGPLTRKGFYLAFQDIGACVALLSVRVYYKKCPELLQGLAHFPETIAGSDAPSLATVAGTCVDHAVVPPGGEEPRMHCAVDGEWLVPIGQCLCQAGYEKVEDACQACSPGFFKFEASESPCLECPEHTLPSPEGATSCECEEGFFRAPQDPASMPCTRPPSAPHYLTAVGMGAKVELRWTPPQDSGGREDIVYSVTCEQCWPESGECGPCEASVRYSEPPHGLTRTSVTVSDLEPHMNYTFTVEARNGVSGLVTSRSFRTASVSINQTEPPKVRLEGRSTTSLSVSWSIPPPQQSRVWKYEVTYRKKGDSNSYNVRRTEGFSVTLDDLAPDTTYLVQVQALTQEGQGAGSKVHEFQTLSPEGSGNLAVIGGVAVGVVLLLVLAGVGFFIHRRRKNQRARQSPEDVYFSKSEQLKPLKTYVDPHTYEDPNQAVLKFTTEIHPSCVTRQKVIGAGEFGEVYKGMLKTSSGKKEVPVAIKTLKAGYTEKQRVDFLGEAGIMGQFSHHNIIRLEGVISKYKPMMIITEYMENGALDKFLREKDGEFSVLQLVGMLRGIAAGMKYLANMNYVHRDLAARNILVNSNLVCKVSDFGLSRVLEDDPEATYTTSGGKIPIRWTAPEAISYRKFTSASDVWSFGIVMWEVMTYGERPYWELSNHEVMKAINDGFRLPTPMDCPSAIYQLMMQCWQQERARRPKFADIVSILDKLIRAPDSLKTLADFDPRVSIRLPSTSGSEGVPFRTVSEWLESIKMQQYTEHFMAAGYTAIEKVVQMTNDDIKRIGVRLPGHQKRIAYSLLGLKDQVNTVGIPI

For the compound `COc1cc2nc(N3CCN(C(=O)C4COc5ccccc5O4)CC3)nc(N)c2cc1OC` (centres unmarked) [Doxazosin, 2-[4-(2,3-Dihydro-1,4-benzodioxine-2-carbonyl)piperazin-1-yl]-6,7-dimethoxyquinazolin-4-amine], the “EphA2 phosphorylation and internalization in MDA-MB-231 cells (positive control,” value in assay [1] is reported as ~ 50 μM.

In the case of `COc1cc2nc(N3CCN(C(=O)CCCCCCCCCCC(=O)N4CCN(c5nc(N)c6cc(OC)c(OC)cc6n5)CC4)CC3)nc(N)c2cc1OC` [compound 27, 1,12-bis(4-(4-amino-6,7-dimethoxyquinazolin-2-yl)piperazin-1-yl)dodecane-1,12-dione], in assay [2], the “EphA2 phosphorylation in EphA2-overexpressing MDA-MB-231 cells; receptor interna” value is recorded as ~ 0.4 μM.
